The text below walks through data of patent US12433908B2, “Use of nicotinamide riboside, nicotinic acid riboside, and nicotinamide mononucleotide, reduced nicotinyl compounds, and nicotinoyl compound derivatives in infant formula for healthy development” (ChromaDex, Inc., priority 2016, dated 2025).

Series [1] can be described thus: Fecal and activity scores of piglets given NR solution. As to conditions: for Activity Score: scale 4=alert, attentive to 1=very lethargic; for Fecal Score: scale 4=normal (solid) to 1=severe diarrhea (liquid). It counts as in vivo, piglets (Yorkshire/Hampshire crossbred). An excerpt:
Sixteen (n=16) Yorkshire/Hampshire crossbred piglets were obtained from the University of California, Davis Swine Teaching and Research Center and received on lactation day (“LD”) 14. Prior to arrive, the piglets were processed by the suppler between 1-3 days of age by administration of iron and an antibiotic ([…] for swine) as is common practice at the University of California, Davis Swine Facility. It is not common practice at the University of California, Davis Swine Facility to give a second dose of iron and antibiotics unless it becomes necessary. The piglets were from two litters (litters 15 and 17), weaned at 17 days of age, and randomly placed into one of two groups balanced for litter, sex, and weight. The animals were not acclimated to the facility at arrival and were subsequently acclimated to the test diet administration system. The piglets were weaned into a temperature-controlled room (approximately 27-29° C.) that contained 10 adjacent pens. The piglets were group-housed in the nursery room at the Swine Facility, which is an enclosed room with access restricted to trained personnel. The two groups were separated by one pen containing piglets of similar age. Each morning enough nicotinamide riboside (NR, I) in water solution was prepared for that day's dose administration according to the dose preparation protocol. At least 5 mL of prepared dose was reserved and immediately frozen after preparation each day for analysis of nicotinamide riboside (NR, I) for the purpose of confirming stability of the dose material. The doses were stored at refrigeration temperature while not in use. Nicotinamide riboside (NR, I) was dosed once per day in the morning and at the same time each day. Piglets in the control group received the same volume of plain water and were dosed on the same schedule. Starting on Day 1, animals in the nicotinamide riboside (NR, I) group were dosed once daily (in the morning) with 277 mg nicotinamide riboside (NR, I) per pig resuspended in water for seven days. After one week, animals were dosed once daily with 342 mg nicotinamide riboside (NR, I) per pig delivered in 2.5 mL for seven days. For Days 1 and 2, the nicotinamide riboside (NR, I) solution was prepared by resuspending 2770 mg nicotinamide riboside (NR, I) in 50 mL water, and 5 mL of this solution was delivered to each pig by squirting it into the back of the mouth using a 10 mL syringe with a piece of tubing attached to the end. To reduce the volume to more efficiently deliver the nicotinamide riboside (NR, I) solution, the 2770 mg was resuspended in 25 mL water and 2.5 mL of the solution was squirted into the back of the mouth of each pig using a 3 mL syringe for Days 3-7. For Days 8-14, 3420 mg nicotinamide riboside (NR, I) was resuspended in 25 mL water and 2.5 mL of this solution was delivered to each pig. Each day prior to dosing, 2.5 mL of the nicotinamide riboside (NR, I) (5 mL on Days 1 and 2) were placed into a separate tube and frozen. All animals were weighed at weaning (baseline) and after one and two weeks of nicotinamide riboside (NR, I) supplementation. Fecal and activity scores were recorded daily using the scales listed below. Weights and fecal scores were analyzed using a two-factor repeated measures ANOVA (mixed-model ANOVA) with p values<0.05 considered significant. The fecal consistency scale used is as follows: 4=normal (solid); 3=soft feces (semi-solid); 2=mild diarrhea (semi liquid); 1=severe diarrhea (liquid).

The conditions of series [2]: mice on a high-fat diet supplemented with NR; cited from earlier work.
The nature of series [3]: Body weight of early-weaned piglets given NR solution. The class given is in vivo, piglets (Yorkshire/Hampshire crossbred). An excerpt: Sixteen (n=16) Yorkshire/Hampshire crossbred piglets were obtained from the University of California, Davis Swine Teaching and Research Center and received on lactation day (“LD”) 14. Prior to arrive, the piglets were processed by the suppler between 1-3 days of age by administration of iron and an antibiotic (Excede for swine) as is common practice at the University of California, Davis Swine Facility. It is not common practice at the University of California, Davis Swine Facility to give a second dose of iron and antibiotics unless it becomes necessary.
The piglets were from two litters (litters 15 and 17), weaned at 17 days of age, and randomly placed into one of two groups balanced for litter, sex, and weight. The animals were not acclimated to the facility at arrival and were subsequently acclimated to the test diet administration system. The piglets were weaned into a temperature-controlled room (approximately 27-29° C.) that contained 10 adjacent pens. The piglets were group-housed in the nursery room at the Swine Facility, which is an enclosed room with access restricted to trained personnel. The two groups were separated by one pen containing piglets of similar age.
Each morning enough nicotinamide riboside (NR, I) in water solution was prepared for that day's dose administration according to the dose preparation protocol. At least 5 mL of prepared dose was reserved and immediately frozen after preparation each day for analysis of nicotinamide riboside (NR, I) for the purpose of confirming stability of the dose material. The doses were stored at refrigeration temperature while not in use. Nicotinamide riboside (NR, I) was dosed once per day in the morning and at the same time each day. Piglets in the control group received the same volume of plain water and were dosed on the same schedule.
The daily amount of nicotinamide riboside (NR, I) approximated the dose (33 mg/kg) used in human investigations of efficacy in areas of mitochondrial dysfunction converted to piglet equivalent dose using the body surface area method. See A. B. Nair & S. Jacob, A simple practice guide for dose conversion between animals and human, 7 J. BASIC CLIN. PHARMA 27 (2016), incorporated by reference herein in its entirety.
Starting on Day 1, animals in the nicotinamide riboside (NR, I) group were dosed once daily (in the morning) with 277 mg nicotinamide riboside (NR, I) per pig resuspended in water for seven days. After one week, animals were dosed once daily with 342 mg nicotinamide riboside (NR, I) per pig delivered in 2.5 mL for seven days. For Days 1 and 2, the nicotinamide riboside (NR, I) solution was prepared by resuspending 2770 mg nicotinamide riboside (NR, I) in 50 mL water, and 5 mL of this solution was delivered to each pig by squirting it into the back of the mouth using a 10 mL syringe with a piece of tubing attached to the end. To reduce the volume to more efficiently deliver the nicotinamide riboside (NR, I) solution, the 2770 mg was resuspended in 25 mL water and 2.5 mL of the solution was squirted into the back of the mouth of each pig using a 3 mL syringe for Days 3-7. […]
All animals were weighed at weaning (baseline) and after one and two weeks of nicotinamide riboside (NR, I) supplementation. Fecal and activity scores were recorded daily using the scales listed below. Weights and fecal scores were analyzed using a two-factor repeated measures ANOVA (mixed-model ANOVA) with p values<0.05 considered significant. […]

[4] abbreviates: Wk 1, 277 mg/pig once daily oral.
Where [5] appears, read: Wk 2, 342 mg/pig once daily oral Days 8-14.

On to `NC(=O)c1ccc[n+]([C@@H]2O[C@H](CO)[C@@H](O)[C@H]2O)c1` [NR, Nicotinamide riboside], for which the “fecal scores, NR vs. control” value in series [1] (2-week intervention) is on record as “not statistically different”. Also, the “Activity Score” value is reported as 4.0 in series [1] (Baseline, before dosing); 4.0 in series [1] (setting [4]); 4.0 in series [1] (setting [5]). The “Fecal Score” value in series [1] (Baseline, before dosing) is recorded as 3.78 ± 0.39; in series [1] (setting [4]), 2.93 ± 0.67; in series [1] (setting [5]) it was 2.90 ± 0.60. Also, in series [2], the “less weight gained on a high-fat diet” value is 40%. Further, in series [3] (2-week feeding of NR), the “health, nutritional quality, normal growth of piglets weaned 7 days early” value is reported as “did not negatively impact the health, nutritional quality, or normal growth”. The Weight in series [3] (Baseline, before dosing) is 7.77 ± 1.33 kg; in series [3] (setting [4]), 8.33 ± 1.56 kg; in series [3] (setting [5]) it was 9.39 ± 1.61 kg. Moreover, the “body weight, NR vs. control” value in series [3] (Week 1 or Week 2 of treatment) was “no differences in body weight”.
